For experiment [1], the system named is Candida albicans ATCC 10321. Kind of experiment: MIC, broth microdilution (human pathogens). The class given is cell-based. Particulars: ATCC10321; Candida albicans ATCC 10321; SDB, 30 °C, 48 h; read-out: Minimum inhibitory concentration (MIC). For orientation: Dilution methods test growth across graded concentrations, often in twofold steps.
A further experiment concerns Candida albicans SC 5314. Put plainly: MIC, broth microdilution (human pathogens). The format is cell-based. Particulars: SC5314; Candida albicans SC 5314; SDB, 30 °C, 48 h; read-out: Minimum inhibitory concentration (MIC).
The test system of another experiment is Candida albicans 1. Put plainly: MIC, broth microdilution (human pathogens). The format is cell-based. Particulars: Candida albicans 1; SDB, 30 °C, 48 h; read-out: Minimum inhibitory concentration (MIC).
The subject of a further experiment is Candida albicans 2. Kind of experiment: MIC, broth microdilution (human pathogens). Particulars: Candida albicans 2; SDB, 30 °C, 48 h; read-out: Minimum inhibitory concentration (MIC). The class given is cell-based.
The test system of the next experiment is Candida albicans H. Put plainly: MIC, broth microdilution (human pathogens). The format is cell-based. Particulars: Candida albicans H; SDB, 30 °C, 48 h; read-out: Minimum inhibitory concentration (MIC).
Another experiment relates to Candida albicans 40. Kind of experiment: MIC, broth microdilution (human pathogens). Particulars: Candida albicans 40; SDB, 30 °C, 48 h; read-out: Minimum inhibitory concentration (MIC). The class given is cell-based.
For another experiment, the system named is Candida albicans 41. Kind of experiment: MIC, broth microdilution (human pathogens). Particulars: Candida albicans 41; SDB, 30 °C, 48 h; read-out: Minimum inhibitory concentration (MIC). The class given is cell-based.
The test system of another experiment is Candida albicans 44. Put plainly: MIC, broth microdilution (human pathogens). The format is cell-based. Particulars: Candida albicans 44; SDB, 30 °C, 48 h; read-out: Minimum inhibitory concentration (MIC).
The subject of a further experiment is Candida parapsilosis. Kind of experiment: MIC, broth microdilution (human pathogens). Particulars: Lodderomyces parapsilosis; Candida parapsilosis; SDB, 30 °C, 48 h; read-out: Minimum inhibitory concentration (MIC). The format is cell-based.
The next experiment relates to Candida parapsilosis 7. Kind of experiment: MIC, broth microdilution (human pathogens). The class given is cell-based. Particulars: Lodderomyces parapsilosis; Candida parapsilosis 7; SDB, 30 °C, 48 h; read-out: Minimum inhibitory concentration (MIC).
The test system of a further experiment is Candida zeylanoides 33. Put plainly: MIC, broth microdilution (human pathogens). The class given is cell-based. Particulars: Dujonia zeylanoides; Candida zeylanoides 33; SDB, 30 °C, 48 h; read-out: Minimum inhibitory concentration (MIC).
The test system of experiment [2] is Saccharomyces cerevisiae 42. Put plainly: MIC, broth microdilution (human pathogens). The format is cell-based. Particulars: Saccharomyces cerevisiae 42; SDB, 30 °C, 48 h; read-out: Minimum inhibitory concentration (MIC).
Experiment [3] concerns Aspergillus brasiliensis ATCC 16404. Put plainly: MIC, broth microdilution (human pathogens). The class given is cell-based. Particulars: ATCC16404; Aspergillus brasiliensis ATCC 16404; SDB, 30 °C, 48 h; read-out: Minimum inhibitory concentration (MIC).
A further experiment deals with Aspergillus candidus 3. Put plainly: MIC, broth microdilution (human pathogens). Particulars: Aspergillus candidus 3; SDB, 30 °C, 48 h; read-out: Minimum inhibitory concentration (MIC). The class given is cell-based.
In the next experiment the test system is Aspergillus candidus 25. Put plainly: MIC, broth microdilution (human pathogens). The format is cell-based. Particulars: Aspergillus candidus 25; SDB, 30 °C, 48 h; read-out: Minimum inhibitory concentration (MIC).
The subject of experiment [4] is Cryptococcus neoformans B 3501. Kind of experiment: MIC, broth microdilution (human pathogens). The format is cell-based. Particulars: B3501; Cryptococcus neoformans B 3501; SDB, 30 °C, 48 h; read-out: Minimum inhibitory concentration (MIC).
In experiment [5] the test system is Cryptococcus neoformans ATCC 11240. Kind of experiment: MIC, broth microdilution (human pathogens). The class given is cell-based. Particulars: ATCC11240; Cryptococcus neoformans ATCC 11240; SDB, 30 °C, 48 h; read-out: Minimum inhibitory concentration (MIC).
A further experiment has as its system Cryptococcus 67. Kind of experiment: MIC, broth microdilution (human pathogens). The format is cell-based. Particulars: Cryptococcus 67; SDB, 30 °C, 48 h; read-out: Minimum inhibitory concentration (MIC).
In experiment [6] the test system is Cryptococcus var. grubii H99 serotype A. Kind of experiment: MIC, broth microdilution (human pathogens). The format is cell-based. Particulars: Cryptococcus var. grubii H99 serotype A; SDB, 30 °C, 48 h; read-out: Minimum inhibitory concentration (MIC).
For another experiment, the system named is Candida strains. Kind of experiment: Agar Disk Diffusion Assay, Candida strains. The class given is cell-based.
The test system of experiment [7] is Alternaria alternata AL19. Put plainly: MIC, micro-spectrophotometric growth assay (phytopathogens). Particulars: Alternaria alternata AL19; PDB, 24 °C, dark; imazalil at label dose; read-out: Minimum inhibitory concentration (MIC). The class given is cell-based.
In the next experiment the test system is Botrytis cinerea B2. The description is as above. The class given is cell-based. Particulars: Botrytis cinerea B2; PDB, 24 °C, dark; imazalil at label dose; read-out: Minimum inhibitory concentration (MIC).
For experiment [8], the system named is Colletotrichum acutatum s.s. M146-2. The experiment is described as above. The format is cell-based, Colletotrichum acutatum sensu stricto. Particulars: Colletotrichum acutatum s.s. M146-2, PDB, 24 °C, dark, imazalil at label dose, read-out: Minimum inhibitory concentration (MIC).
The subject of the next experiment is Coniella granati M0_C2. The description is as above. Particulars: Coniella granati M0_C2; PDB, 24 °C, dark; imazalil at label dose; read-out: Minimum inhibitory concentration (MIC). The class given is cell-based.
Experiment [9] relates to other genera tested (other fungi strains). Kind of experiment: Agar Disk Diffusion Assay, other genera. The class given is cell-based. Particulars: 100 µg. As for the experimental part: The antifungal activity of pomegranate compounds was evaluated against 19 clinically isolated fungal strains, including nine belonging to Candida albicans species, two belonging to Aspergillus genus, one belonging to Cryptococcus genus, and one Saccharomyces cerevisiae. The C. albicans strains were isolated on CHROMID agar, Aspergillus and Cryptococcus genus were isolated on SDA-CAF and one Saccharomyces cerevisiae on SDA. All the isolates were confirmed by matrix-assisted laser desorption ionization (MALDI) time-of-flight mass spectrometry (TOF/MS). Strains from the American Type Culture Collection (ATCC) were included. All strains were maintained in SDB with 20% (w/v) glycerol at −80 °C until use and sub-cultured in SDA before each test.
The preliminary determination of the antifungal activity of the target compounds (punicalagin, punicalin, ellagic acid, and gallic acid) from pomegranate was carried out by means of the agar disk diffusion assay, according to the standard procedure of the Clinical and Laboratory Standards Institute, with slight modifications. Plates containing SDA were uniformly spread with 100 μL of 10^3 conidia/mL of each strain suspension. […] Disks containing fluconazole (25 μg), amphotericin B (25 μg) and DMSO (20 μL) were used as the positive and the negative control, respectively. The antifungal activity of pomegranate compounds was evaluated by measuring the diameter of the clear inhibition zone formed right around the disks after 48 h incubation at 30 ± 1 °C. The experiment was carried out in triplicate.
Background: In agar diffusion tests the substance spreads into inoculated agar from a disc or well.

Converted amounts (≈) assume the structure as drawn. “And” between values parts separate entries of the source, which are not always exact repeats. Equal values may be shown once. Read-outs that look alike come from different tables or passages of the source.

A word on the zone of inhibition: it is the size of the clear area around the sample on an inoculated plate. `OC(Cn1cncn1)(Cn1cncn1)c1ccc(F)cc1F` [Fluconazole, fluconazole, reference compound]: the MIC was found to be 40.8 µM (≈ 12.5 µg/mL) in [1]; 9.8 µM (≈ 3 µg/mL) with Candida albicans SC 5314; 81.6 µM (≈ 25 µg/mL) in the experiment with Candida albicans 1; 163 µM (≈ 50 µg/mL) with Candida albicans 2; 81.6 µM (≈ 25 µg/mL) with Candida albicans H; 163 µM (≈ 50 µg/mL) in the experiment with Candida albicans 40. Further, the MIC with Candida albicans 41 is 81.6 µM (≈ 25 µg/mL); with Candida albicans 44, 81.6 µM (≈ 25 µg/mL); with Candida parapsilosis, 9.8 µM (≈ 3 µg/mL); in the experiment with Candida parapsilosis 7, 19.6 µM (≈ 6 µg/mL); in the experiment on Candida zeylanoides 33, 19.6 µM (≈ 6 µg/mL); in [2], 4.9 µM (≈ 1.5 µg/mL). For the same compound, the MIC in experiment [3] was determined as 4.9 µM (≈ 1.5 µg/mL); in the experiment with Aspergillus candidus 3 it was 9.8 µM (≈ 3 µg/mL); with Aspergillus candidus 25, 9.8 µM (≈ 3 µg/mL); in experiment [4] it was 4.9 µM (≈ 1.5 µg/mL); in experiment [5], 4.9 µM (≈ 1.5 µg/mL); in the experiment on Cryptococcus 67, 9.8 µM (≈ 3 µg/mL). For the same compound, the MIC in experiment [6] is 4.9 µM (≈ 1.5 µg/mL). In the experiment on Candida strains (25 μg), the “share of Candida strains with inhibition zone from 21 to 30 mm” value is recorded as 73%. Besides, in the experiment with Candida strains (25 µg, positive controls, for the stated share of Candida strains), the zone of inhibition at 25 µg/disc was 21 to 30 mm.

As for `O=C(O)c1cc(O)c(O)c(O)c1` [Gallic Acid, gallic acid], the MIC in experiment [7] is 587.8 µM and 588 µM; with Botrytis cinerea B2, 587.8 µM and 588 µM; in [8], 587.8 µM (≈ 100 µg/mL); in [8] (S.S.M1462) it was 588 µM (≈ 100 µg/mL); in the experiment with Coniella granati M0_C2, 587.8 µM and 588 µM; in experiment [1] it was 294 µM (≈ 50 µg/mL). The MIC with Candida albicans SC 5314 was 294 µM (≈ 50 µg/mL); in the experiment on Candida albicans 1 it was 294 µM (≈ 50 µg/mL); in the experiment with Candida albicans 2 it was 294 µM (≈ 50 µg/mL); with Candida albicans H, 588 µM (≈ 100 µg/mL); with Candida albicans 40, 588 µM (≈ 100 µg/mL); with Candida albicans 41 it was 294 µM (≈ 50 µg/mL). Moreover, the MIC with Candida albicans 44 turned out to be 294 µM (≈ 50 µg/mL); in the experiment on Candida parapsilosis, 294 µM (≈ 50 µg/mL); in the experiment with Candida parapsilosis 7, 588 µM (≈ 100 µg/mL); with Candida zeylanoides 33 it was 588 µM (≈ 100 µg/mL); in experiment [2] it was 588 µM (≈ 100 µg/mL); in experiment [3], 8.8 µM (≈ 1.5 µg/mL). For the same compound, the MIC in the experiment on Aspergillus candidus 3 was determined as 17.6 µM (≈ 2.99 µg/mL); with Aspergillus candidus 25 it was 17.6 µM (≈ 2.99 µg/mL); in experiment [4], 4.4 µM (≈ 0.749 µg/mL); in experiment [5], 4.4 µM (≈ 0.749 µg/mL); in the experiment with Cryptococcus 67, 8.8 µM (≈ 1.5 µg/mL); in experiment [6], 4.4 µM (≈ 0.749 µg/mL). Besides, the “share of Candida strains with inhibition zone from 11 to 20 mm” value in the experiment on Candida strains (100 µg) amounted to 73%. In addition, in experiment [9], the “share of other fungi strains with inhibition zone from 11 to 20 mm” value turned out to be 25%.

As to `C=CCOC(Cn1ccnc1)c1ccc(Cl)cc1Cl` (stereo not drawn) [Imazalil, imazalil, reference compound], the MIC (in experiment [7]; in the experiment with Botrytis cinerea B2; in experiment [8] (S.S.M1462); in the experiment on Coniella granati M0_C2) was 0.3 µM (≈ 0.0892 µg/mL) throughout.

The values above are taken from publication PMC8073005, “Antifungal Activity and DNA Topoisomerase Inhibition of Hydrolysable Tannins from Punica granatum L” (International Journal of Molecular Sciences, 2021).
